Measured values published in patent US10053463B2 (Janssen Pharmaceutica NV, priority 2013, dated 2018).

The compounds below were run against P2X7 (Homo sapiens (Human), UniProt Q99572) (assay: P2X7 antagonism in human peripheral blood mononuclear cells (PBMCs), IL-1β release). Details: P2X7; Table 3 (additional runs); 10 μM compound; read-out: PBMC 10 μM (% control).
Format: cell-based
Method: P2X7 Antagonism in Human Peripheral Blood Mononuclear Cells (PBMCs) and Human Whole Blood.
Human blood was collected using a blood donor program. PBMCs were isolated from blood using a Ficoll density gradient technique. Briefly, blood was laid on Ficoll solution and centrifuged at RT for 20 minutes at 2000 rpm. The buffy layer (between red blood cells and plasma) was carefully collected by aspiration, washed with PBS and centrifuged again at 1500 rpm for 15 minutes. The resulting cell pellet was washed and plated on 96 well-plates for experiments. For the Human Whole Blood experiments, 150 μl of human blood was platted on 96 well-plates. Lipopolysaccharide (LPS) (30 ng/ml) was added to each well and incubated for 1 hour. Test compounds were then added and incubated for 30 minutes. The P2X7 agonist, 2′(3′)-O-(4-benzoylbenzoyl) adenosine 5′-triphosphate (Bz-ATP) was then added at a final concentration of 0.5 mM (PBMC) or 1 mM (blood). Cells were incubated for an additional 1.5 hours. At that point, supernatant was collected and stored for IL-1β assay using manufacturer's protocol for enzyme-linked immunosorbent assay (ELISA). Data was expressed as percent control, where control is defined as the difference in IL-1β release in LPS+Bz-ATP samples and LPS only samples. Data was plotted as response (% control) versus concentration to generate IC50 values. […] Data are analyzed and graphed on Graphpad Prism 5. For analysis, each concentration point is averaged from triplicate values and the averaged values are plotted on Graphpad Prism.

P2X7, sequence (Q99572 whole entry): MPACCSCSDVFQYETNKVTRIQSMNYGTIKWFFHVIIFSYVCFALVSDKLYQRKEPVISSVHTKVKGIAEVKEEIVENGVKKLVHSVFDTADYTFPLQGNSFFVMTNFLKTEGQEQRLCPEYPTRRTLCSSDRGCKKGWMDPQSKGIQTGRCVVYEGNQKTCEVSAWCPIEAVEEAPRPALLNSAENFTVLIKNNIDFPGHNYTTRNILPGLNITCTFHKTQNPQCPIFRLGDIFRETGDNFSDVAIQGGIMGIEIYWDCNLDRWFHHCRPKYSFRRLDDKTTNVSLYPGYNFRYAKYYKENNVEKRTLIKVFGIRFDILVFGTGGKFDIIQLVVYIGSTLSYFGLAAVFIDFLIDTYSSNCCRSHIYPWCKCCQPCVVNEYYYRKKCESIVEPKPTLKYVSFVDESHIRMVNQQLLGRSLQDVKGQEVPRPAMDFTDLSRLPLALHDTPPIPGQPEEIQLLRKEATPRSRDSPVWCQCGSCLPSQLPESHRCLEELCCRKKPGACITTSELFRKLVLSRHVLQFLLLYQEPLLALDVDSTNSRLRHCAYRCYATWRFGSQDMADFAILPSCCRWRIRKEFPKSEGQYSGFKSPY

Row | Structure (SMILES) | remaining activity at 10 µM [%]
1 | CC(c1cccc(C(F)(F)F)c1Cl)N1CCn2c(nnc2-c2cnccn2)C1=O (racemic) [Example 4, (±)7-{1-[2-Chloro-3-(trifluoromethyl)phenyl]ethyl}-3-pyrazin-2-yl-6,7-dihydro[1,2,4]triazolo[4,3-a]pyrazin-8(5H)-one] | 46
2 | CC1Cn2c(nnc2-c2cnccn2)C(=O)N1Cc1cccc(Cl)c1Cl (racemic) [Example 11, (±)-7-(2,3-Dichlorobenzyl)-6-methyl-3-pyrazin-2-yl-6,7-dihydro[1,2,4]triazolo[4,3-a]pyrazin-8(5H)-one] | -0.4
3 | CC1Cn2c(nnc2-c2cnccn2)C(=O)N1Cc1cccc(C(F)(F)F)c1Cl (racemic) [Example 14, (±)-7-[2-Chloro-3-(trifluoromethyl)benzyl]-6-methyl-3-pyrazin-2-yl-6,7-dihydro[1,2,4]triazolo[4,3-a]pyrazin-8(5H)-one] | 2.5
4 | O=C1c2nnc(-c3ccc(F)cc3)n2CCN1Cc1cccc(C(F)(F)F)c1Cl [Example 1, 7-[2-Chloro-3-(trifluoromethyl)benzyl]-3-(4-fluorophenyl)-6,7-dihydro[1,2,4]triazolo[4,3-a]pyrazin-8(5H)-one] | 25.4
5 | O=C1c2nnc(-c3cnccn3)n2CCN1Cc1c(Cl)cccc1Cl [Example 5, 7-(2,6-Dichlorobenzyl)-3-pyrazin-2-yl-6,7-dihydro[1,2,4]triazolo[4,3-a]pyrazin-8(5H)-one] | 8.8
6 | O=C1c2nnc(-c3cnccn3)n2CCN1Cc1cccc(F)c1F [Example 6, 7-(2,3-Difluorobenzyl)-3-pyrazin-2-yl-6,7-dihydro[1,2,4]triazolo[4,3-a]pyrazin-8(5H)-one] | 23.7
7 | CS(=O)(=O)c1cc(Cl)ccc1CN1CCn2c(nnc2-c2cnccn2)C1=O [Example 7, 7-[4-Chloro-2-(methylsulfonyl)benzyl]-3-pyrazin-2-yl-6,7-dihydro[1,2,4]triazolo[4,3-a]pyrazin-8(5H)-one] | 8.8
8 | O=C1c2nnc(-c3ccccn3)n2CCN1Cc1cccc(Cl)c1Cl [Example 8, 7-(2,3-Dichlorobenzyl)-3-pyridin-2-yl-6,7-dihydro[1,2,4]triazolo[4,3-a]pyrazin-8(5H)-one] | -10.6
9 | O=C1c2nnc(-c3ccccn3)n2CCN1Cc1cccc(C(F)(F)F)c1Cl [Example 9, 7-[2-Chloro-3-(trifluoromethyl)benzyl]-3-pyridin-2-yl-6,7-dihydro[1,2,4]triazolo[4,3-a]pyrazin-8(5H)-one] | -3.1
10 | Cc1c(CN2CCn3c(nnc3-c3ccccn3)C2=O)cccc1C(F)(F)F [Example 10, 7-[2-Methyl-3-(trifluoromethyl)benzyl]-3-pyridin-2-yl-6,7-dihydro[1,2,4]triazolo[4,3-a]pyrazin-8(5H)-one] | 59.3
11 | C[C@H]1Cn2c(nnc2-c2cnccn2)C(=O)N1Cc1cccc(Cl)c1Cl [Example 13, (6S)-7-(2,3-Dichlorobenzyl)-6-methyl-3-pyrazin-2-yl-6,7-dihydro[1,2,4]triazolo[4,3-a]pyrazin-8(5H)-one] | 8.2
12 | C[C@@H]1Cn2c(nnc2-c2cnccn2)C(=O)N1Cc1cccc(C(F)(F)F)c1Cl [Example 15, (6R)-7-[2-Chloro-3-(trifluoromethyl)benzyl]-6-methyl-3-pyrazin-2-yl-6,7-dihydro[1,2,4]triazolo[4,3-a]pyrazin-8(5H)-one] | 4.1
13 | C[C@H]1Cn2c(nnc2-c2cnccn2)C(=O)N1Cc1cccc(C(F)(F)F)c1Cl [Example 16, (6S)-7-[2-Chloro-3-(trifluoromethyl)benzyl]-6-methyl-3-pyrazin-2-yl-6,7-dihydro[1,2,4]triazolo[4,3-a]pyrazin-8(5H)-one] | 8.4
14 | C[C@H]1Cn2c(nnc2-c2ccc(F)cc2)C(=O)N1Cc1cccc(C(F)(F)F)c1Cl [Example 17, (6S)-7-[2-Chloro-3-(trifluoromethyl)benzyl]-3-(4-fluorophenyl)-6-methyl-6,7-dihydro[1,2,4]triazolo[4,3-a]pyrazin-8(5H)-one] | 2
15 | C[C@H]1Cn2c(nnc2-c2ccccn2)C(=O)N1Cc1cccc(C(F)(F)F)c1Cl [Example 18, (6S)-7-[2-Chloro-3-(trifluoromethyl)benzyl]-6-methyl-3-pyridin-2-yl-6,7-dihydro[1,2,4]triazolo[4,3-a]pyrazin-8(5H)-one] | -6.2

Results, then the compound that gave them:

Row | remaining activity at 10 µM [%] | Structure (SMILES)
16 | -1 | O=C1c2nnc(-c3cnccn3)n2CC(C2CC2)N1Cc1cccc(C(F)(F)F)c1Cl (racemic) [Example 61, (±)-7-[2-Chloro-3-(trifluoromethyl)benzyl]-6-cyclopropyl-3-pyrazin-2-yl-6,7-dihydro[1,2,4]triazolo[4,3-a]pyrazin-8(5H)-one]
17 | -0.4 | O=C1c2nnc(-c3ncccn3)n2CC(C2CC2)N1Cc1cccc(C(F)(F)F)c1Cl (racemic) [Example 64, (±)-7-[2-Chloro-3-(trifluoromethyl)benzyl]-6-cyclopropyl-3-pyrimidin-2-yl-6,7-dihydro[1,2,4]triazolo[4,3-a]pyrazin-8(5H)-one]
18 | 6.9 | O=C1c2nnc(-c3cccnc3)n2CC(C2CC2)N1Cc1cccc(C(F)(F)F)c1Cl (racemic) [Example 67, (±)-7-[2-Chloro-3-(trifluoromethyl)benzyl]-6-cyclopropyl-3-pyridin-3-yl-6,7-dihydro[1,2,4]triazolo[4,3-a]pyrazin-8(5H)-one]
19 | 1.6 | O=C1c2nnc(-c3cc[nH]n3)n2CC(C2CC2)N1Cc1cccc(C(F)(F)F)c1Cl (racemic) [Example 68, (±)-7-[2-Chloro-3-(trifluoromethyl)benzyl]-6-cyclopropyl-3-(1H-pyrazol-3-yl)-6,7-dihydro[1,2,4]triazolo[4,3-a]pyrazin-8(5H)-one]
20 | 20.8 | O=C1c2nnc(-c3ccc(F)cn3)n2CC(C2CC2)N1Cc1cccc(C(F)(F)F)c1Cl (racemic) [Example 69, (±)-7-[2-Chloro-3-(trifluoromethyl)benzyl]-6-cyclopropyl-3-(5-fluoropyridin-2-yl)-6,7-dihydro[1,2,4]triazolo[4,3-a]pyrazin-8(5H)-one]
21 | 9.1 | O=C1c2nnc(-c3ncc(F)cn3)n2CC(C2CC2)N1Cc1cccc(C(F)(F)F)c1Cl (racemic) [Example 70, (±)-7-[2-Chloro-3-(trifluoromethyl)benzyl]-6-cyclopropyl-3-(5-fluoropyrimidin-2-yl)-6,7-dihydro[1,2,4]triazolo[4,3-a]pyrazin-8(5H)-one]
22 | -1.3 | C[C@H](c1ccccc1)N1C(=O)c2nnc(-c3cnccn3)n2C[C@@H]1C (relative stereo) [Example 94, (6S)-6-Methyl-7[(1R*)-1-phenylethyl]-3-pyrazin-2-yl-6,7-dihydro[1,2,4]triazolo[4,3-a]pyrazin-8(5H)-one]
23 | 3.1 | C[C@H]1Cn2c(nnc2-c2cnccn2)C(=O)N1[C@@H](C)c1ccccc1 (relative stereo) [Example 95, (6S)-6-Methyl-7-[(1S*)-1-phenylethyl]-3-pyrazin-2-yl-6,7-dihydro[1,2,4]triazolo[4,3-a]pyrazin-8(5H)-one]
24 | -9.5 | Cc1cnc(-c2nnc3n2C[C@H](C)N(Cc2cccc(C(F)(F)F)c2Cl)C3=O)cn1 [Example 19, (6S)-7-[2-Chloro-3-(trifluoromethyl)benzyl]-6-methyl-3-(5-methylpyrazin-2-yl)-6,7-dihydro[1,2,4]triazolo[4,3-a]pyrazin-8(5H)-one]
25 | 4.7 | C[C@H]1Cn2c(nnc2-c2ncco2)C(=O)N1Cc1cccc(C(F)(F)F)c1Cl [Example 20, (6S)-7-[2-Chloro-3-(trifluoromethyl)benzyl]-6-methyl-3-(1,3-oxazol-2-yl)-6,7-dihydro[1,2,4]triazolo[4,3-a]pyrazin-8(5H)-one]
26 | -3.4 | C[C@H]1Cn2c(nnc2-c2cocn2)C(=O)N1Cc1cccc(C(F)(F)F)c1Cl [Example 21, (6S)-7-[2-Chloro-3-(trifluoromethyl)benzyl]-6-methyl-3-(1,3-oxazol-4-yl)-6,7-dihydro[1,2,4]triazolo[4,3-a]pyrazin-8(5H)-one]
27 | -3.9 | C[C@H]1Cn2c(nnc2-c2cnco2)C(=O)N1Cc1cccc(C(F)(F)F)c1Cl [Example 22, (6S)-7-[2-Chloro-3-(trifluoromethyl)benzyl]-6-methyl-3-(1,3-oxazol-5-yl)-6,7-dihydro[1,2,4]triazolo[4,3-a]pyrazin-8(5H)-one]
28 | -7 | C[C@H]1Cn2c(nnc2-c2ccn(C)n2)C(=O)N1Cc1cccc(C(F)(F)F)c1Cl [Example 23, (6S)-7-[2-Chloro-3-(trifluoromethyl)benzyl]-6-methyl-3-(1-methyl-1H-pyrazol-3-yl)-6,7-dihydro[1,2,4]triazolo[4,3-a]pyrazin-8(5H)-one]

Same assay, conditions: Table 2; 10 μM compound; IL-1β release, LPS + 0.5 mM Bz-ATP

Row | PBMC 10 μM (% control) | Structure (SMILES)
29 | 15.4 | C[C@H]1Cn2c(nnc2-c2cnccn2)C(=O)N1Cc1cccc(Cl)c1Cl [Example 13, (6S)-7-(2,3-Dichlorobenzyl)-6-methyl-3-pyrazin-2-yl-6,7-dihydro[1,2,4]triazolo[4,3-a]pyrazin-8(5H)-one]
30 | 13.4 | C[C@H]1Cn2c(nnc2-c2cnccn2)C(=O)N1Cc1cccc(C(F)(F)F)c1Cl [Example 16, (6S)-7-[2-Chloro-3-(trifluoromethyl)benzyl]-6-methyl-3-pyrazin-2-yl-6,7-dihydro[1,2,4]triazolo[4,3-a]pyrazin-8(5H)-one]

Same assay, conditions: Table 3 (additional runs); 1 μM compound

Row | PBMC 1 μM (% control) | Structure (SMILES)
31 | −0.6 | O=C1c2nnc(-c3cnccn3)n2CCN1Cc1cccc(C(F)(F)F)c1Cl [Example 3, 7-[2-Chloro-3-(trifluoromethyl)benzyl]-3-pyrazin-2-yl-6,7-dihydro[1,2,4]triazolo[4,3-a]pyrazin-8(5H)-one]
